US20230332245A1, “Complement as Prognostic and Predictive Biomarker and Potential Therapeutic Target in Renal Cell Carcinoma” (Texas Tech University System, priority 2020, published 2023)

Legend:
Format in all cases: in vivo, mouse
[1] = tested on: CD8^+ T cells in tumors (TIL); test: Flow cytometry of CD8+ T cells (TIL) and IFN-γ expressing TIL in Renca tumors
Method: Mouse studies were approved by the Institutional Animal Care and Use Committee of the Texas Tech University Health Sciences Center. Eight to twelve weeks old BALB/c, C3ar1, and C5ar1 knockout mice from the Jackson Laboratory were injected s.c. with 1×10^6 Renca cells (ATCC® CRL2947™). When tumors reached ˜5 mm in diameter mice were assigned to treatment cohorts and treated with, C3aR1 inhibitor SB 290157 (Sigma-Aldrich, 10 mg/kg i.p. twice a day), C5aR1 inhibitor PMX53 [17] (1 mg/kg, i.p. every other day), or PD-1 antibody (RMP1-14, BE-0146, Bio X Cell, 250 μg per mouse i.p. every 4 days), or RaIgG2a isotype control (BE-0089, Bio X Cell, 250 μg i.p. every 4 days), as previously described. […]
Cells from tumors were pre-incubated with CD16/32 antibody (Fc block; 2.4G2; BD Pharmingen) and stained with fluorochrome-conjugated antibodies from Biolegend: BV605-CD45 (30-F11), AF700-CD3 (17A2), PerCP/Cy5.5-CD4 (GK1.5), and PE/Cy7-CD8α (53-6.7) as recommended by the manufacturer. To quantify IFN-γ expression, cells were stained with surface markers and permeabilized with Cytofix/Cytoperm (554714, BD Biosciences), and washed with 1× Perm/Wash buffer (554714, BD Biosciences) followed by incubation with PE-IFN-γ (XMG1.2, Biolegend). […] Data were acquired on BD Fortessa and analyzed with FlowJo software (Tree Star).

[2] = tested on: Renca cells; test: Tumor growth in anti-PD-1-recalcitrant Renca model of RCC; settings: BALB/c mice, s.c. Renca tumors; vs placebo (PBS) or isotype IgG; FIG. 6A, 6C
Method: (§1) Mouse studies were approved by the Institutional Animal Care and Use Committee of the Texas Tech University Health Sciences Center. Eight to twelve weeks old BALB/c, C3ar1, and C5ar1 knockout mice from the Jackson Laboratory were injected s.c. with 1×10^6 Renca cells (ATCC® CRL2947™). When tumors reached ˜5 mm in diameter mice were assigned to treatment cohorts and treated with, C3aR1 inhibitor SB 290157 (Sigma-Aldrich, 10 mg/kg i.p. twice a day), C5aR1 inhibitor PMX53 [17] (1 mg/kg, i.p. every other day), or PD-1 antibody (RMP1-14, BE-0146, Bio X Cell, 250 μg per mouse i.p. every 4 days), or RaIgG2a isotype control (BE-0089, Bio X Cell, 250 μg i.p. every 4 days), as previously described. CD8^+ T cells were depleted by intraperitoneal (i.p.) injection of 200 μg of CD8a-neutralizing antibody (2.43, Bio X cell, NH) per mouse, each day, for three consecutive days, prior to injecting tumor cells. […] BALB/c control mice were treated in the same manner with rat IgG2b (LTF-2, Bio X cell).
To test in vivo the role of complement proteins, the inventors used RCC-Renca (ATCC® CRL-2947™), a murine RCC model that while differing from human RCC, has been extensively evaluated in immunotherapy studies and is known to be recalcitrant to ICI [34], and therefore, potentially resembles ICI-resistant RCC. […]

[3] = tested on: genes associated with T cell exhaustion; proangiogenic genes; test: Real time quantitative PCR of gene expression in Renca tumors; settings: relative to placebo; FIG. 6K
Method: as §1
RNA was extracted from frozen tissue using RNeasy plus mini kit (Qiagen) and cDNA was generated using High-Capacity RNA-to-cDNA™ kit (Applied Biosystems). […] Relative expression was calculated using the 2^−ΔΔCt method and RT2 profiler PCR Array Data Analysis (SAB Biosciences) and normalized to GAPDH.

## NC(N)=NCCC[C@H](NC(=O)COCC(c1ccccc1)c1ccccc1)C(=O)O [SB290157]
[1]; FACS after CD3/CD28 restimulation, FIG. 6G-6J
  TIL function: production of IFN-γ upon ex-vivo restimulation: highest production of IFN-γ
[2]
  tumor growth (tumor volumes): reduced tumor growth
[3]
  expression of genes associated with T cell exhaustion (Pdcd1, Ctla4, Btla, Fas, Stat3) in tumors: Btla and Fas were upregulated

## PMX53
[1]; FACS, FIG. 6D, 6F
  recruitment of CD8+ T cells to tumors (TIL): influx CD8^+ T cells to tumors
[2]
  tumor growth (tumor volumes): reduced tumor growth
[3]
  expression of genes associated with T cell exhaustion (Pdcd1, Ctla4, Btla, Fas, Stat3) in tumors: reduction in the expression
